PMC7764601 (Molecules, 2020)
Where two headings read alike, the source gives them in different places. Marks after values point to notes of the source that are not given here.

Columns and labels:
mice [1] = details: compounds obtained previously (series 1 and 2); cited from earlier work
mice [2] = test system: mice; set-up: method as in PMID 11234340, PMID 12484538, PMID 15652370; details: series 1, cited from earlier work
mice [3] = test system: mice; set-up: method as in PMID 11234340, PMID 12484538, PMID 15652370; details: series 1, cited from earlier work; remark: listed apart in the source
in vivo = assay type: in vivo; details: male, albino Swiss, mouse, in vivo, ip; mice, intraperitoneal, mortality after 24 h; confidence limits in parentheses
Protocol: (§1) The experiments were carried out on male albino Swiss mice (body weight 18–26 g). All of the animals were housed at constant humidity (60%) and temperature (25 °C) and kept on a 12 h light/dark cycle. Animals were fed a standard pellet diet with free access to tap water. All procedures were conducted according to Animal Care and Use Committee guidelines, and approved by the Ethical Committee of Jagiellonian University, Kraków.
(§2) Control and experimental groups consisted of 6–8 animals each. The investigated compounds were administered intraperitoneally as a suspension in 0.5% methylcellulose in a constant volume of 10 mL/kg.

mice [4] = test: “Writhing” test in mice (phenylbenzoquinone); assay type: in vivo; details: for ED50: Mus musculus, ip, read-out: ED50 (mg/kg) ± SEM, writhing test
Protocol: as §1, §2
(§3) The statistical significance was calculated using a Student’s t-test. The ED50 values and their confidence limits were calculated according to the method of Litchfield and Wilcoxon.
(§4) Pain reactivity was measured in two tests: “hot plate” test (according to the method of Eddy and Leimbach) and “writhing” test in mice (according to Hendershot and Forsaith).
Then, after 25 min, the irritant (phenylbenzoquinone, 0.02% solution, ethanol-water, 5:95) was also administered intraperitoneally in a constant volume of 0.25 mL. Five min after the application of the irritant,a 10 min long period of observation started, in which the number of writhing episodes was counted.
The analgesic effect of individual doses was expressed in percent:(1) % Analgesic effect=100−∑ of writing incidents in experimental group/∑ of writhing incidents in control group×100

mice [5] = test: “Hot plate” test in mice; assay type: in vivo; details: for change in vivo at 100 mg/kg / change in vivo at 200 mg/kg / Time of Reaction to Pain Stimulus (s) ± SEM: hot plate; for change in vivo at 100 mg/kg / change in vivo at 200 mg/kg / Time of Reaction to Pain Stimulus (s) ± SEM / analgesic effect in the hot plate test (in words): mice; for analgesic effect in the hot plate test (in words): applied doses (Table 4)
Protocol: as §1, §2, §3, §4
Animals were placed individually on the metal plate, heated to 55 ± 1 °C. The latency time (s) to the pain reaction (licking of the hind paws or jumping) was recorded by a stop-watch. A cutoff time of 45 s was used to prevent tissue damage.

mice [6] = test: Spontaneous locomotor activity in mice (photoresistor actometers); assay type: in vivo; details: for ED50: confidence limits in parentheses, read-out: ED50 (mg/kg) ± SEM, spontaneous locomotor activity; for Number of impulses ± SEM (30min): i.p.
Protocol: as §1, §2
Spontaneous locomotor activity in mice was measured in circular photoresistoractometers (32 cm in diameter). […] Thirty minutes after the injection of the investigated compounds, mice were placed in the actometers for 30 min. Each crossing of the light beam was recorded automatically. The amount of impulses was noted after 30 min.

[7] = Mus musculus, ip, 0.5 h, dose 100 mg/kg, read-out: Prolonged Time (%)
[8] = Mus musculus, ip, 0.5 h, dose 200 mg/kg, read-out: Prolonged Time (%)
[9] = Mus musculus, ip, dose 25 mg/kg, read-out: Degree of motor inhibition (%)
[10] = Mus musculus, ip, dose 50 mg/kg, read-out: Degree of motor inhibition (%)
[11] = confidence limits in parentheses
[12] = Mus musculus, ip, dose 100 mg/kg, read-out: Degree of motor inhibition (%)
[13] = Mus musculus, ip, dose 200 mg/kg, read-out: Degree of motor inhibition (%)
[14] = Mus musculus, ip, 0.5 h, read-out: Prolonged Time (%)

Compound	LD50 at 24 h (in vivo) [mg/kg]	Mean no. of writhing ± SEM (mice [4]; i.p., dose 12.5 mg/kg)	Mean no. of writhing ± SEM (mice [4]; i.p., dose 25 mg/kg)	change in vivo at 100 mg/kg (mice [5]; [7]) [%]	change in vivo at 200 mg/kg (mice [5]; [8]) [%]	Time of Reaction to Pain Stimulus (s) ± SEM (mice [5]; dose 100 mg/kg) [s]	Time of Reaction to Pain Stimulus (s) ± SEM (mice [5]; dose 200 mg/kg) [s]	ED50 (mice [6]; Mus musculus, ip) [mg/kg]	inhibition at 25 mg/kg (mice [6]; [9]) [%]	inhibition at 50 mg/kg (mice [6]; [10]) [%]	Number of impulses ± SEM (30min) (mice [6]; dose 25 mg/kg)	Number of impulses ± SEM (30min) (mice [6]; dose 50 mg/kg)	ED50 (mice [4]; [11]) [mg/kg]	Mean no. of writhing ± SEM (mice [4]; i.p., dose 50 mg/kg)	Mean no. of writhing ± SEM (mice [4]; i.p., dose 100 mg/kg)	inhibition at 100 mg/kg (mice [6]; [12]) [%]	Number of impulses ± SEM (30min) (mice [6]; dose 100 mg/kg)	other results
COc1nc(C)cc2c1C(=O)N(CN1CCOCC1)C2=O [Compound 1Q]	–	–	–	–	–	–	–	–	–	–	–	–	–	–	–	–	–	ED50, writhing test (mice [1]): 13.66 mg/kg; % Inh. of locomotor activity (mice [2]; dose 44 mg/kg): 42.65 * %; Thiopental Anesthesia % Prolong. (mice [3]; dose 44 mg/kg): 141.7 ** %
COc1ccccc1N1CCN(CCCCN2C(=O)c3cc(C)nc(OC)c3C2=O)CC1 [Compound 1R]	–	–	–	–	–	–	–	–	–	–	–	–	–	–	–	–	–	ED50, writhing test (mice [1]): 6.8 mg/kg; % Inh. of locomotor activity (mice [2]; dose 100 mg/kg): 82.32 ** %; Thiopental Anesthesia % Prolong. (mice [3]; dose 50 mg/kg): 159.12%; Thiopental Anesthesia % Prolong. (mice [3]; dose 100 mg/kg): 255.97%
COc1nc(C)cc2c1C(=O)N(CCCCN1CCOCC1)C2=O [Compound 8, 4-methoxy-6-methyl-4-(N-morpholino)-butyl-1H-pyrrolo[3,4-c]pyridine-1,3-(2H)-dion]	> 2000	19.8 ± 2.1	6.2 ± 0.9	3.87	27.5	10.2 ± 1.8	12.2 ± 1.4	34.2	35.4	61.6	299 ± 59	178 ± 30	–	–	–	–	–	analgesic effect in the hot plate test (in words) (mice [5]): not statistically significant; inhibition at 5 mg/kg (mice [6]; Mus musculus, ip, dose 5 mg/kg, read-out: Degree of motor inhibition (%)): 18.1%; inhibition at 12.5 mg/kg (mice [6]; Mus musculus, ip, dose 12.5 mg/kg, read-out: Degree of motor inhibition (%)): 32.8%; Number of impulses ± SEM (30min) (mice [6]; dose 5 mg/kg): 387 ± 24; Number of impulses ± SEM (30min) (mice [6]; dose 12.5 mg/kg): 312 ±26
CCOc1nc(C)cc2c1C(=O)N(CCN1CCN(c3ccccc3)CC1)C2=O [Compound 10]	> 2000	–	7.9 ± 2.1	6.98	34.9	18.4 ± 1.7	23.2 ± 2.6	84 ± 5.1	49.2	55.1	224 ± 45	198 ± 54	15.8 ± 0.91	2.1 ± 0.6	0.9 ± 0.1	6.8	142 ± 29	analgesic effect in the hot plate test (in words) (mice [5]): not statistically significant
CCOc1nc(C)cc2c1C(=O)N(CCN1CCN(c3ccccc3OC)CC1)C2=O [Compound 12]	> 2000	13.9 ± 2.3	9.7 ± 1.1	28.5	52.3	22.1 ± 2.7	26.2 ± 3.1	85 ± 4.2	11.8	34.5	389 ± 54	289 ± 72	14.9 ± 2.01	2.4 ± 0.3	1.9 ± 0.4	59.2	180 ± 41	inhibition at 200 mg/kg (mice [6]; [13]): 76.2%; Number of impulses ± SEM (30min) (mice [6]; dose 200 mg/kg): 105 ± 48
COc1nc(C)cc2c1C(=O)N(CN1CCN(c3cccc(Cl)c3)CC1)C2=O [Compound 13]	> 2000	14.1 ± 1.0	5.9 ± 0.8	4.07	11.6	17.9 ± 2.4	19.2 ± 1.8	164 ± 28.7	–	7.93	–	406 ± 34	14.8	3.8 ± 1.9	0.8 ± 0.1	32.2	299 ± 49	inhibition at 200 mg/kg (mice [6]; [13]): 59.6%; Number of impulses ± SEM (30min) (mice [6]; dose 200 mg/kg): 178 ± 32
CN1CC[C@]23c4c5ccc(O)c4O[C@H]2[C@@H](O)C=C[C@H]3[C@H]1C5 [Morphine, reference compound]	–	–	–	–	–	–	–	–	–	–	–	–	–	–	–	–	–	ED50 (mg/kg) ± SEM, writhing test (mice [4]; i.p., confidence limits in parentheses): 2.44 mg/kg; Mean no. of writhing ± SEM (mice [4]; i.p., dose 1 mg/kg): 16.2 ± 3.51; Mean no. of writhing ± SEM (mice [4]; i.p., dose 3 mg/kg): 7.5 ± 2.9; Mean no. of writhing ± SEM (mice [4]; i.p., dose 10 mg/kg): 1.2 ± 0.8; change in vivo at 1 mg/kg (mice [5]; [14]): 33.8%; change in vivo at 3 mg/kg (mice [5]; [14]): 104%; change in vivo at 6 mg/kg (mice [5]; [14]): 111%; ED50 (mice [5]; Mus musculus, read-out: ED50, hot plate test): 2.55 mg/kg; Time of Reaction to Pain Stimulus (s) ± SEM (mice [5]; dose 1 mg/kg): 19.4 ± 2.1 s; Time of Reaction to Pain Stimulus (s) ± SEM (mice [5]; dose 3 mg/kg): 29.6 ± 6 s; Time of Reaction to Pain Stimulus (s) ± SEM (mice [5]; dose 6 mg/kg): 30.6 ± 3.9 s
